Laboratory results as given in article PMC11427828, “The role of chloroplast SRP54 domains and its C-terminal tail region in post- and co-translational protein transport in vivo” (Journal of Experimental Botany, 2024).
Changes are numbered by the printed parent chain.

Tests used:
[1] = biological target: T1, cpSRP54–His (recombinant mature cpSRP54) (Arabidopsis thaliana, UniProt P37107); test: isothermal titration calorimetry; format: binding; details: read-out: dissociation constant
T1 construct: gene FFC; mature protein, residues 79-564 (transit peptide removed), C-terminal His6, E. coli Rosetta (DE3), EDTA-treated then SEC in Mg buffer
T1 sequence (P37107 79-564): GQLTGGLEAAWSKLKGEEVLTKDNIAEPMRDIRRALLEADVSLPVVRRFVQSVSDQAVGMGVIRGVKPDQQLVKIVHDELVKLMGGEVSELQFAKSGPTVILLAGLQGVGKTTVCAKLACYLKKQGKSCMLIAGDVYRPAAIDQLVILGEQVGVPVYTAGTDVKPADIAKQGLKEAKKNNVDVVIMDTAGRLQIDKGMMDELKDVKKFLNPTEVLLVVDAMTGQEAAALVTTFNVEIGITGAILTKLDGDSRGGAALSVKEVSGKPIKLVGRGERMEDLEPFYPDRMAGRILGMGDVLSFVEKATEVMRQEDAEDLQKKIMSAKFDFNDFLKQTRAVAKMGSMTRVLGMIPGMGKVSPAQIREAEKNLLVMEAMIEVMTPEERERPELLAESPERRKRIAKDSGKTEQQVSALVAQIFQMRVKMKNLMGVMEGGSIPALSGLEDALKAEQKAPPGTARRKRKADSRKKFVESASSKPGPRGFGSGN

[2] = biological target: T2, cpSRP54–His (recombinant mature cpSRP54) (Arabidopsis thaliana, UniProt P37107, Q185R); test: isothermal titration calorimetry; format: binding; details: read-out: dissociation constant
T2 construct: gene FFC; mature protein, residues 79-564 (transit peptide removed), C-terminal His6, E. coli Rosetta (DE3), EDTA-treated then SEC in Mg buffer
T2 sequence (P37107 79-564 Q185R): T1 sequence (P37107 79-564) with Q107R

Compound | Kd [1] [µM] | Kd [2] [µM]
Nc1nc2c(ncn2[C@@H]2O[C@H](COP(=O)(O)OP(=O)(O)O)[C@@H](O)[C@H]2O)c(=O)[nH]1 [GDP] | 30.2 | 30.3
Nc1nc2c(ncn2[C@@H]2O[C@H](COP(=O)(O)OP(=O)(O)OP(=O)(O)O)[C@@H](O)[C@H]2O)c(=O)[nH]1 [GTP] | 53.4 | 17.3
